Test results as given in patent US7138361B2, “Herbicidal heterocycles” (E. I. du Pont de Nemours and Company, priority 2000, dated 2006).

What was measured:
Format in all cases: in vivo
[1] = test system: smallflower flatsedge (Cyperus difformis); experiment: Test C flooded paddy test; details: for Flatsedge plant response rating: Flooded Paddy, scale 0 to 100, 0 no effect, 100 complete control; for Plant response rating, Flatsedge: flooded paddy test, scale 0 to 100 (0 no effect, 100 complete control)
In short: (§1)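 2-leaf-stage plants, flooded paddy; treated; greenhouse 12–14 days; compared with controls by eye; rated 0–100 (0 none, 100 complete control).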

[2] = test system: barnyardgrass (Echinochloa crus-galli); experiment: Test C flooded paddy test; details: for Barnyardgrass plant response rating: Flooded Paddy, scale 0 to 100, 0 no effect, 100 complete control; for Plant response rating, Barnyardgrass: flooded paddy test, scale 0 to 100 (0 no effect, 100 complete control)
In short: as §1

[3] = test system: duck salad (Heteranthera limosa); experiment: Test C flooded paddy test; details: for Ducksalad plant response rating: Flooded Paddy, scale 0 to 100, 0 no effect, 100 complete control; for Plant response rating, Ducksalad: flooded paddy test, scale 0 to 100 (0 no effect, 100 complete control)
In short: as §1

[4] = test system: cocklebur (Xanthium strumarium); experiment: Test C preemergence
In short: (§2)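 Each compound was dissolved in a non-phytotoxic solvent system containing a surfactant and sprayed either on freshly planted seeds (preemergence) or on young plants, 2 to 18 cm high (postemergence). Ratings after 12 to 14 greenhouse days ran from 0, no effect, to 100, complete control.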

[5] = test system: crabgrass (Digitaria sanguinalis); experiment: Test C preemergence
In short: as §2

[6] = test system: johnsongrass (Sorghum halepense); experiment: Test C preemergence
In short: as §2

soybean (Glycine max) = experiment: Test C preemergence
In short: as §2

[7] = test system: common ragweed (Ambrosia elatior); experiment: Test C preemergence
In short: as §2

[8] = test system: Surinam grass (Brachiaria decumbens); experiment: Test C preemergence
In short: as §2

[9] = test system: lambsquarters (Chenopodium album); experiment: Test C preemergence
In short: as §2

[10] = test system: bermudagrass (Cynodon dactylon); experiment: Test C preemergence
In short: as §2

Sunflower = experiment: Test C preemergence; details: Rate 125 g/ha; scale 0 to 100, 0 no effect, 100 complete control
[11] = test system: velvetleaf (Abutilon theophrasti); experiment: Test C preemergence
In short: as §2

[12] = test system: pigweed (Amaranthus retroflexus); experiment: Test C preemergence
In short: as §2

kochia (Kochia scoparia) = experiment: Test C preemergence
In short: as §2

[13] = test system: yellow nutsedge (Cyperus esculentus); experiment: Test C preemergence
In short: as §2

Nightshade = experiment: Test C preemergence
corn (Zea mays) = experiment: Test C preemergence
In short: as §2

[14] = test system: woolly cupgrass (Eriochloa villosa); experiment: Test C preemergence
In short: as §2

[15] = test system: giant foxtail (Setaria faberii); experiment: Test C preemergence
In short: as §2

[16] = test system: morningglory (Ipomoea hederacea); experiment: Test C preemergence
In short: as §2

[17] = test system: goosegrass (Eleusine indica); experiment: Test C preemergence
In short: as §2

[18] = Rate 125 g/ha, scale 0 to 100, 0 no effect, 100 complete control
[19] = preemergence, Rate 62 g/ha, scale 0 to 100
[20] = preemergence, Rate 500 g/ha, visual evaluation after 12 to 14 days
[21] = preemergence, Rate 250 g/ha, scale 0 to 100, 0 no effect, 100 complete control

For `CCCC(C)c1ccn(C2SCN(c3cccc(C(F)(F)F)c3)C2=O)n1` (stereo not drawn) [Compound 92], the “Flatsedge plant response rating” value ([1]; Rate 250 g/ha) was 100, the “Flatsedge plant response rating” value ([1]; Rate 500 g/ha) was 100 and the “Plant response rating, Flatsedge” value ([1]; Rate 62 g/ha) was 90. The “Plant response rating, Flatsedge” value ([1]; Rate 125 g/ha) was 100, the “Barnyardgrass plant response rating” value ([2]; Rate 250 g/ha) was 100 and the “Barnyardgrass plant response rating” value ([2]; Rate 500 g/ha) was 100. The “Plant response rating, Barnyardgrass” value ([2]; Rate 62 g/ha) was 50, the “Plant response rating, Barnyardgrass” value ([2]; Rate 125 g/ha) was 100 and the “Ducksalad plant response rating” value ([3]; Rate 250 g/ha) was 100. The “Ducksalad plant response rating” value ([3]; Rate 500 g/ha) was 100, the “Plant response rating, Ducksalad” value ([3]; Rate 62 g/ha) was 80 and the “Plant response rating, Ducksalad” value ([3]; Rate 125 g/ha) was 100. For the same molecule, the “Plant response rating, Cocklebur” value [4, 18] was 0, the “Plant response rating, Cocklebur” value [4, 19] was 0 and the “Plant response rating (0 to 100), Cocklebur” value [4, 20] was 20. For the same molecule, the “Plant response rating, Cocklebur” value [4, 21] was 20, the “Plant response rating, Crabgrass” value [5, 18] was 80 and the “Plant response rating, Crabgrass” value [5, 19] was 60. The “Plant response rating (0 to 100), Crabgrass” value [5, 20] was 100, the “Plant response rating, Crabgrass” value [5, 21] was 100 and the “Plant response rating, Johnsongrass” value [6, 18] was 65. The “Plant response rating, Johnsongrass” value [6, 19] was 50, the “Plant response rating (0 to 100), Johnsongrass” value [6, 20] was 100 and the “Plant response rating, Johnsongrass” value [6, 21] was 70. For the same molecule, the “Plant response rating, Soybean” value (soybean (Glycine max); [18]) was 0, the “Plant response rating, Soybean” value (soybean (Glycine max); [19]) was 0 and the “Plant response rating (0 to 100), Soybean” value (soybean (Glycine max); [20]) was 100. For the same molecule, the “Plant response rating, Soybean” value (soybean (Glycine max); [21]) was 30, the “Plant response rating, Ragweed, Common” value [7, 18] was 0 and the “Plant response rating, Ragweed, Common” value [7, 19] was 0. The “Plant response rating (0 to 100), Ragweed, Common” value [7, 20] was 40, the “Plant response rating, Ragweed, Common” value [7, 21] was 0 and the “Plant response rating, Surinam grass” value [8, 18] was 0. The “Plant response rating, Surinam grass” value [8, 19] was 0, the “Plant response rating (0 to 100), Surinam grass” value [8, 20] was 35 and the “Plant response rating, Surinam grass” value [8, 21] was 20. The “Plant response rating, Lambsquarters” value [9, 18] was 100, the “Plant response rating, Lambsquarters” value [9, 19] was 80 and the “Plant response rating (0 to 100), Lambsquarters” value [9, 20] was 100. For the same molecule, the “Plant response rating, Lambsquarters” value [9, 21] was 100, the “Plant response rating, Bermudagrass” value [10, 18] was 20 and the “Plant response rating, Bermudagrass” value [10, 19] was 20. The “Plant response rating (0 to 100 where 0 is no effect and 100 is complete control), Bermudagrass” value [10, 20] was 90, the “Plant response rating, Bermudagrass” value [10, 21] was 85 and the “Plant response rating, Sunflower” value (Sunflower) was 0. For the same molecule, the “Plant response rating, Velvetleaf” value [11, 18] was 0, the “Plant response rating, Velvetleaf” value [11, 19] was 0 and the “Plant response rating (0 to 100), Velvetleaf” value [11, 20] was 0. The “Plant response rating, Velvetleaf” value [11, 21] was 0, the “Plant response rating, Pigweed” value [12, 18] was 0 and the “Plant response rating, Pigweed” value [12, 19] was 0. For the same molecule, the “Plant response rating (0 to 100), Pigweed” value [12, 20] was 50, the “Plant response rating, Pigweed” value [12, 21] was 100 and the “Plant response rating, Kochia” value (kochia (Kochia scoparia); [18]) was 40. For the same molecule, the “Plant response rating, Kochia” value (kochia (Kochia scoparia); [19]) was 0, the “Plant response rating (0 to 100), Kochia” value (kochia (Kochia scoparia); [20]) was 100 and the “Plant response rating, Kochia” value (kochia (Kochia scoparia); [21]) was 70. For the same molecule, the “Plant response rating, Nutsedge” value [13, 18] was 0, the “Plant response rating, Nutsedge” value [13, 19] was 0 and the “Plant response rating (0 to 100), Nutsedge” value [13, 20] was 0. For the same molecule, the “Plant response rating, Nutsedge” value [13, 21] was 0, the “Plant response rating, Nightshade” value (Nightshade; Rate 62 g/ha, scale 0 to 100) was 0 and the “Plant response rating, Nightshade” value (Nightshade; [18]) was 0. The “Plant response rating, Nightshade” value (Nightshade; Rate 250 g/ha, scale 0 to 100, 0 no effect, 100 complete control) was 20, the “Plant response rating, Corn” value (corn (Zea mays); [18]) was 10 and the “Plant response rating, Corn” value (corn (Zea mays); [19]) was 0. For the same molecule, the “Plant response rating (0 to 100), Corn” value (corn (Zea mays); [20]) was 40, the “Plant response rating, Corn” value (corn (Zea mays); [21]) was 30 and the “Plant response rating, Cupgrass, Woolly” value [14, 18] was 10. For the same molecule, the “Plant response rating, Cupgrass, Woolly” value [14, 19] was 0, the “Plant response rating (0 to 100), Cupgrass, Woolly” value [14, 20] was 50 and the “Plant response rating, Cupgrass, Woolly” value [14, 21] was 50. The “Plant response rating, Foxtail, Giant” value [15, 18] was 0, the “Plant response rating, Foxtail, Giant” value [15, 19] was 20 and the “Plant response rating (0 to 100), Foxtail, Giant” value [15, 20] was 100. The “Plant response rating, Foxtail, Giant” value [15, 21] was 100, the “Plant response rating, Morningglory” value [16, 18] was 0 and the “Plant response rating, Morningglory” value [16, 19] was 0. For the same molecule, the “Plant response rating (0 to 100), Morningglory” value [16, 20] was 0, the “Plant response rating, Morningglory” value [16, 21] was 0 and the “Plant response rating, Goosegrass” value [17, 18] was 75. The “Plant response rating, Goosegrass” value [17, 19] was 60, the “Plant response rating (0 to 100), Goosegrass” value [17, 20] was 100 and the “Plant response rating, Goosegrass” value [17, 21] was 100.
